Data taken from PMC11952846, “The sterol-regulating human ARV1 binds cholesterol and phospholipids through its conserved ARV1 homology domain” (The Journal of Biological Chemistry, 2025).
Residue numbers refer to the chain shown, from its start.

Key:
6XHIS-ARV1-N98 C34/C37A = target: T1, 6XHIS-ARV1-N98 C34/C37A (Homo sapiens, UniProt Q9H2C2, C34A/C37A); assay: Lipid overlay far western, site-directed mutant; assay type: binding; details: compared to the ARV1-N98 protein
T1 construct: Expressing amino-terminal 98 amino acids of ARV1; made in house; host or cells: E. coli BL21 (pET-28a(+))
T1 sequence (Q9H2C2 1-98 C34A/C37A): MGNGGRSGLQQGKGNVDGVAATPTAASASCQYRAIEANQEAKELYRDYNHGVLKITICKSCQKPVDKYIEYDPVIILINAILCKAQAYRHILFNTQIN
Experimental: (§1) Lipid overlays were blocked in TBST-BSA (100 mM Tris–HCl buffer, pH 7.5, 150 mM NaCl, 0.5% Tween 20, 3% bovine serum albumin) for 1 h and subsequently washed eight separate times with TBST for 2 min each. Overlays were incubated with 0.5 μg/ml GST-tagged or 6XHIS-tagged proteins in 3% TBST-BSA buffer containing 0.1% Triton X-100, for 1 h at room temperature and washed as above. Overlays were incubated with either anti-GST or anti-6XHIS monoclonal antibodies at a 1:1000 dilution in TBST-BSA for 1 h at room temperature followed by eight washes in TBST. Overlays were visualized using Immobilon Western Chemiluminescent horseradish peroxidase substrate and protein–lipid interaction was detected using a GE ImageQuant LAS 3000 imager.

6XHIS-ARV1-N98 K84A = target: T2, 6XHIS-ARV1-N98 K84A (Homo sapiens, UniProt Q9H2C2, K84A); assay: Lipid overlay far western, site-directed mutant; assay type: binding; details: compared to the ARV1-N98 protein
T2 construct: Expressing amino-terminal 98 amino acids of ARV1; made in house; host or cells: E. coli BL21 (pET-28a(+))
T2 sequence (Q9H2C2 1-98 K84A): T1 sequence (Q9H2C2 1-98 C34A/C37A) with A34C, A37C, K84A
Experimental: as §1

6XHIS-ARV1-N98 K67A = target: T3, 6XHIS-ARV1-N98 K67A (Homo sapiens, UniProt Q9H2C2, K67A); assay: Lipid overlay far western, site-directed mutant; assay type: binding; details: compared to the ARV1-N98 protein
T3 construct: Expressing amino-terminal 98 amino acids of ARV1; made in house; host or cells: E. coli BL21 (pET-28a(+))
T3 sequence (Q9H2C2 1-98 K67A): T1 sequence (Q9H2C2 1-98 C34A/C37A) with A34C, A37C, K67A
Experimental: as §1

GST-Annexin A2 [1] = target: T4, GST-Annexin A2 (Homo sapiens, UniProt P07355); assay: Lipid overlay far western (positive control protein); assay type: binding
T4 sequence (P07355 whole entry): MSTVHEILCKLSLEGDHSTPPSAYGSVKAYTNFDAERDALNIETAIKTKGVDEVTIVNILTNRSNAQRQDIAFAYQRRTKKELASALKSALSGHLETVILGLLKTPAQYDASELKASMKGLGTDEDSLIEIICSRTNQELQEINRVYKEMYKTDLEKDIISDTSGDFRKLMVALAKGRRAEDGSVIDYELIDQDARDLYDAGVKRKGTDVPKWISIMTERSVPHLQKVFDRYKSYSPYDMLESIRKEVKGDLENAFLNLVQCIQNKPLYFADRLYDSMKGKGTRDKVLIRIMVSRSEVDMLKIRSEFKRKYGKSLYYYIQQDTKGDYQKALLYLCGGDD
Experimental: as §1

GST-ARV1-N98 = target: T5, GST-ARV1-N98 (Homo sapiens, UniProt Q9H2C2); assay: Lipid overlay far western; assay type: binding
T5 construct: Expresses amino-terminal 98 amino acids of ARV1; made in house; host or cells: E. coli BL21 (pGEX-4T1)
T5 sequence (Q9H2C2 1-98): T1 sequence (Q9H2C2 1-98 C34A/C37A) with A34C, A37C
Experimental: as §1

[2] = target: T6, GST-ARV1 (full-length ARV1) (Homo sapiens, UniProt Q9H2C2); assay: Lipid overlay far western; assay type: binding
T6 construct: Expresses full length ARV1; made in house; host or cells: E. coli BL21 (pGEX-4T1)
T6 sequence (Q9H2C2 1-271): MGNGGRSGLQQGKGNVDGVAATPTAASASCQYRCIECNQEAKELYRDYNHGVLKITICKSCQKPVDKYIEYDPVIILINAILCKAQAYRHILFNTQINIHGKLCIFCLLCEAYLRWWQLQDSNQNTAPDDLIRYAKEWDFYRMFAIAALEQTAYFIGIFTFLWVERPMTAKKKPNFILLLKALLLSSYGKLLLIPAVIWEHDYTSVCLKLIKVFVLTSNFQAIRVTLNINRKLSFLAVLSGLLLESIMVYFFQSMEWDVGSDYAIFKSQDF
Experimental: as §1

GST-ARV1-N70 = target: T7, GST-ARV1-N70 (Homo sapiens, UniProt Q9H2C2); assay: Lipid overlay far western, truncation; assay type: binding; details: compared to ARV1-N98
T7 construct: Expresses amino-terminal 70 amino acids of ARV1; made in house; host or cells: E. coli BL21 (pGEX-4T1)
T7 sequence (Q9H2C2 1-70): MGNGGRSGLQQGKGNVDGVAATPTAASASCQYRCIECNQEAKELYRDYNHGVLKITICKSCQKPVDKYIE
Experimental: as §1

GST-ARV1-N50 = target: T8, GST-ARV1-N50 (Homo sapiens, UniProt Q9H2C2); assay: Lipid overlay far western, truncation; assay type: binding; details: compared to ARV1-N98 / ARV1-N70
T8 construct: Expresses amino-terminal 50 amino acids of ARV1; made in house; host or cells: E. coli BL21 (pGEX-4T1)
T8 sequence (Q9H2C2 1-50): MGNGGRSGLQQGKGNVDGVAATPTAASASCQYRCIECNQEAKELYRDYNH
Experimental: as §1

[3] = target: T9, GST-ARV1-N98 (N-terminal 98 amino acids, AHD) (Homo sapiens, UniProt Q9H2C2); assay: Protein-lipid liposome binding assay (ultracentrifugation, Western blot)
T9 construct: Expresses amino-terminal 98 amino acids of ARV1; made in house; host or cells: E. coli BL21 (pGEX-4T1)
T9 sequence (Q9H2C2 1-98): T1 sequence (Q9H2C2 1-98 C34A/C37A) with A34C, A37C
Experimental: (§2) Lyophilized lipids were reconstituted in chloroform at 10 mg/ml and stored in glass tubes with Teflon tops at −20 °C until use. One milliliter of 10 mg/ml stock was dried under a stream of nitrogen in a glass tube until a lipid cake/film was formed. The lipid cake was then rehydrated in BLT rehydration buffer (5 mM Tris/HCl, pH 7.4, containing 150 mM NaCl) to a concentration of 1 mg/ml. Lipid suspensions were subjected to three freeze/thaw cycles using a dry ice ethanol/[…] water bath to encapsulate the buffer and improve liposome formation. The suspension and lipid extruder were equilibrated to temperature for 10 min and liposomes were extruded using […] polycarbonate membranes (Avestin). Liposomes were made by mixing stock lipid PL (1 mg/ml) with PC (10 mg/ml).
(§3) Cholesterol composition liposomes were rehydrated with cholesterol rehydration buffer (10 mM Hepes, pH 7.4, containing 150 mM KCl).
(§4) Liposomes were serial diluted in floatation buffer (100 mM NaCl, 2 mM EDTA, pH 5.5) to a final concentration of 0.1 mg/ml. Nine hundred microliters of liposome solution was placed in clear ultracentrifuge tubes and mixed with 100 μl of 0.01 μg/ml of protein. The liposome/protein solution was incubated at room temperature for 1 h with occasional shaking. An initial 100 μl of liposome/protein solution (liposomes) was removed and the remaining 900 μl was centrifuged at 50,000g for 20 min at 4 °C. The pellet was resuspended in 800 μl of fresh floatation buffer, centrifuged as above, and 800 μl of supernatant was removed (wash 1). This was repeated a second time and again 800 μl of supernatant was removed (wash 2). The final pellet was resuspended in 100 μl of floatation buffer plus SDS treatment buffer (pellet). Thirty microliters of each fraction was run on a 15% SDS-PAGE gel and probed with an anti-GST monoclonal antibody at a 1:1500 dilution.

[4] = target: T6, GST-ARV1 (full-length ARV1); assay: as above
Experimental: as §2, §3, §4

6XHIS-ARV1-N98 = target: T10, 6XHIS-ARV1-N98 (Homo sapiens, UniProt Q9H2C2); assay: HTRF phospholipid lipid-binding assay; details: biotinylated lipid (Bio-PL) titrated, 0.75 μM protein; lipid labels mean the biotinylated lipids
T10 construct: made in house; host or cells: E. coli BL21
T10 sequence (Q9H2C2 1-98): T1 sequence (Q9H2C2 1-98 C34A/C37A) with A34C, A37C
Text: An HTRF assay was developed for 6XHIS-ARV1-N98-lipid binding. HTRF measures analyte interactions through fluorescence resonance energy transfer technology and time-resolved measurements ([53]). The interaction between two molecules can be quantified through binding each individual molecule involved with a fluorescent label and then analyzing the transfer of energy between the initial donor fluorophore and the secondary acceptor fluorophore. Following excitation of the first fluorophore, transfer of energy can only occur if the molecules bound with the fluorescent tags are within proximity to each other.
Assays were plated in 384-well flat bottom microplates (Greiner Bio, catalog #784075-25). Proteins were diluted using binding buffer (20 mM Hepes buffer, pH 7.2, containing 0.1% BSA, and 0.01% Tween20) to a stock concentration of 0.75 μM, and biotinylated phospholipids were dispensed, dried under nitrogen gas, and resuspended in binding buffer to a stock concentration of 50 μM. The lipid stock solution was diluted by 1:2 for a series of 12 serial dilutions. For the assay, in sequential order, 6 μl of binding buffer was loaded into the plate in triplicate for each dilution of phospholipid. To this, 2 μl of 0.75 μM 6XHIS-ARV1-N98 was added, followed by 2 μl of biotinylated phospholipid. Immediately following each addition loaded into the plate, the plate was centrifuged for 1 min at 1000 rpm to bring the contents to the bottom of the well. Next, detection antibodies were mixed with detection buffer (20 mM Hepes buffer, pH 8.5, containing 0.01% BSA and 200 mM KF). […] Plates were read on a PerkinElmer EnVision Xcite Multilabel plate reader.
Curves were logarithmically transformed and normalized to a common scale before being fit with a nonlinear regression of the agonist against the normalized response. […] For phospholipid competition analysis, IC50; M values were determined using nonlinear regression of the inhibitor against normalized response.

GST-Annexin A2 [5] = target: T4, GST-Annexin A2; assay: Protein-lipid liposome binding assay (positive control protein); details: protein detected in final pellet
Experimental: as §2, §4

[6] = lipid-embedded membrane strips, incl. sphingolipid strip
[7] = PIP lipid membrane strip, 100pmol-1.56pmol per spot
[8] = liposomes containing 10% and 20% cholesterol
[9] = liposomes containing 30 to 50% cholesterol
[10] = protein detected in final pellet

CCCCCC(=O)O[C@H](COC(=O)CCCCCNC(=O)CCCC[C@@H]1SC[C@@H]2NC(=O)N[C@@H]21)COP(=O)(O)O[C@@H]1[C@H](O)[C@H](O)[C@@H](OP(=O)(O)O)[C@H](OP(=O)(O)O)[C@H]1O [PI(4,5)P2, reference compound]
change of lipid-protein interaction (6XHIS-ARV1-N98 C34/C37A): enhanced interactions | change of lipid-protein interaction (6XHIS-ARV1-N98 K84A): increased interactions | change of lipid-protein interaction (6XHIS-ARV1-N98 K67A): increased interactions | lipid-protein interaction (GST-Annexin A2 [1]; [6]): interacted

CCCCCC(=O)O[C@H](COC(=O)CCCCCNC(=O)CCCC[C@@H]1SC[C@@H]2NC(=O)N[C@@H]21)COP(=O)(O)O[C@H]1[C@H](O)[C@@H](OP(=O)(O)O)[C@H](O)[C@@H](O)[C@H]1O [PI(5)P, reference compound]
lipid-protein interaction (GST-ARV1-N98; [7]): interacted | lipid-protein interaction [2, 7]: interacted | change of lipid-protein interaction (GST-ARV1-N70): reduced interactions | change of lipid-protein interaction (GST-ARV1-N50): eliminated | lipid-protein interaction (GST-Annexin A2 [1]; [7]): strongest interactions

CC(C)CCC[C@@H](C)[C@H]1CC[C@H]2[C@@H]3CC=C4C[C@@H](O)CC[C@]4(C)[C@H]3CC[C@]12C [cholesterol]
lipid-protein interaction (GST-ARV1-N98; [6]): not seen | lipid-protein interaction [2, 6]: not seen | binding to PC:Chol liposomes [3, 8]: bound | binding to PC:Chol liposomes [3, 9]: neither ARV1 nor ARV1-N98 associated | binding to PC:Chol liposomes [4, 8]: bound | binding to PC:Chol liposomes [4, 9]: neither ARV1 nor ARV1-N98 associated

CCCCCCCC/C=C\CCCCCCCC(=O)OC[C@@H](O)COP(=O)(O)O [lyso-phosphatidic acid]
lipid-protein interaction (GST-ARV1-N98; [6]): not seen | lipid-protein interaction [2, 6]: not seen

CCCCCCCCCCCCCC[C@@H](O)[C@@H](O)[C@@H](N)CO [phytosphingosine]
lipid-protein interaction (GST-ARV1-N98; [6]): not | lipid-protein interaction [2, 6]: not

CCCCCC(=O)O[C@H](COC(=O)CCCCCNC(=O)CCCC[C@@H]1SC[C@@H]2NC(=O)N[C@@H]21)COP(=O)(O)O[C@@H]1[C@H](O)[C@H](OP(=O)(O)O)[C@@H](O)[C@H](O)[C@H]1O [reference compound]
lipid-protein interaction (GST-ARV1-N98; [7]): interacted | lipid-protein interaction [2, 7]: interacted | change of lipid-protein interaction (GST-ARV1-N70): reduced interactions | change of lipid-protein interaction (GST-ARV1-N50): enhanced | lipid-protein interaction (GST-Annexin A2 [1]; [7]): strongest interactions

CCCCCCCCCCCCC/C=C/[C@@H](O)[C@@H](N)COP(=O)(O)O [sphingosine-1-phosphate]
lipid-protein interaction (GST-ARV1-N98; [6]): not | lipid-protein interaction [2, 6]: not

CCCCCCCCCCCCC/C=C/[C@@H](O)[C@@H](N)CO [sphingosine]
lipid-protein interaction (GST-ARV1-N98; [6]): not | lipid-protein interaction [2, 6]: not

PI(3,4,5)P3
change of lipid-protein interaction (6XHIS-ARV1-N98 K84A): increased interactions | change of lipid-protein interaction (6XHIS-ARV1-N98 K67A): increased interactions | lipid-protein interaction (GST-Annexin A2 [1]; [6]): interacted

ceramide
lipid-protein interaction (GST-ARV1-N98; [6]): not | lipid-protein interaction [2, 6]: not

lyso-phosphatidylcholine
lipid-protein interaction (GST-ARV1-N98; [6]): not seen | lipid-protein interaction [2, 6]: not seen

phosphatidylinositol [PI, reference compound]
EC50 (6XHIS-ARV1-N98): 12 µM | binding to PC:PL liposomes [3, 10]: not | binding to PC:PL liposomes [4, 10]: not | binding to PC:PL liposomes (GST-Annexin A2 [5]): not
